Assay [1] deals with cPLA enzyme. Kind of assay: Effect of solvent and diluent components on cPLA enzyme activity. The class given is biochemical, human. As to the method: The substrate diluent generally comprises any suitable assay buffer system, such as HEPES, Tris-HCL, Tris-maleate, glycine, or the like. […] A suitable diluent comprises about 25% -50% glycerol, and preferably about 30% glycerol.
The thiosubstrate diluent also comprises an amount of detergent sufficient to solubilize! the substrate. One suitable detergent is Triton-X 100. Triton-X 100 is preferably used at concentrations of about 1-5 mM with about 1-3 mM thiosubstrate.
The Ca^2+ can be provided by the addition of CaCl2 to the diluent, preferably at concentrations greater than 1 mM, and more preferably at a concentration of about 10 mM.
The effectiveness of a phospholipase A2 enzyme inhibitor can be measured by adding the inhibitor to the substrate solution prior to the incubation with enzyme. […] Therefore, approximately 10 μl inhibitor dissolved in DMSO can be added to 200 μl substrate solution prior to the addition of enzyme to test the effectiveness of the inhibitor against cPLA. […] Thus, appropriate blanks should be run under each condition tested.

The subject of assay [2] is cPLA2 (purified, recombinant human). Kind of assay: Microtiterplate assay for cPLA2 using thioPC substrate. The format is biochemical. As to the method:
The enzyme activity of CPLA2 was assayed using a ThioPC/Triton X-100 substrate solution. An appropriate volume of ThioPC in chloroform solution was evaporated to dryness under a stream of N2. Triton X-100 (8 mM) in 2× assay buffer (160 mM HEPES, pH 7.4, 300 mM NaCl, 20 mM CaC2, 2 mg/ml BSA) was added to the dried lipid in one-half the desired final volume to give a 2-fold concentrated substrate solution. This solution was bath sonicated 1 min to loosen dried ThioPC from the walls of the vial and then probe sonicated On ice, 20 sec on, 20 sec off for 3 min. The solution was then warmed to 40° C. and warm glycerol equivalent to 30% of the final volume was added. The solution was then brought to the desired final volume with deionized H2 O. The final assay contained 2 mM ThioPC, 4 mM Triton! X-100 and 30% glycerol in 80 mM HEPES, pH 7.4, 150 mM NaCl, 10 mM CaCl2 and 1 mg/ml BSA.
The substrate was then aliquotted, in 200 μl increments, into the wells of a 96-well plate and equilibrated for 5 min at 37° C. To initiate the reaction, 500 ng cPLA2 (purified, recombinant human), in a 5 μl volume of 1× assay buffer, was added to the wells, the plate was shaken 20 seconds on high to mix, and then incubated for 60 min at 37° C. […]
After 60 min, 10 μl of a 25 mM DTNB/475 mM EGTA mixture was added to all substrate containing wells to quench the reaction and initiate the color development. […] After adding the DTNB/EGTA, the plate was once again shaken 20 sec on high and allowed to incubate for an additional 3 min to give the DTNB chromophore time to fully develop prior to reading the plate. The absorbance was measured using a dual wavelength option (405 nm -620 nm) to correct for light scattering. […] The average absorbance of the blanks was subtracted from that of the enzyme containing wells to correct for the absorbance due to the substrate, DTNB, and EGTA. The difference in absorbance was used to calculate enzyme activity. […] Specific activity was calculated using ε405 for DTNB of 12,800 M^- cm^-1 (Yu et al supra) and a path length of 0.47 cm for 215 μl final total volume. […]

Assay [3] deals with cPLA enzyme. Kind of assay: Sensitivity of cPLA enzyme to thiol-sensitive reagents. The format is biochemical, human. Conditions: in the presence of DTNB (Ellman's reagent). As to the method: The sPLA enzymes are very stable, containing 7 disulfide bonds. […] In contrast, cPLA is an intracellular enzyme and assays and purifications are often run in the presence of reduced thiols, such as 2-mercaptoethanol or dithiothreitol (Kramer et al., supra; Clark, J. D., et al., supra).
After an incubation period, the enzyme/substrate reaction is quenched by the addition of a quenching reagent and a thiol-sensitive reagent. As used herein, the term "quenching reagent" refers to any compound capable of stopping the enzymatic activity of phospholipase A2 enzyme. Suitable quenching reagents are Ca^2+ chelators such as ethylene glycol bis(oxyethylenenitrilo) tetraacetic acid (EGTA) and the like, or high concentrations of a detergent such as 30 mM Triton X-100. The thiol-sensitive reagent can be any reagent capable of releasing a chromophore such as DTNB or 4,4'-dithiodipyridine (DTP). DTNB is a preferred thiol-sensitive reagent because its chromophore can be detected at […], which is available to most microtiterplate readers.

Turning to `C[S+](C)[O-]` [DMSO], in the assay with cPLA enzyme [1] (DMSO:enzyme/substrate ratio of about 1:20), the “effect of DMSO on enzyme activity” value is recorded as “unaffected”.

For the molecule Triton X-100, the “effect of Triton X-100 on stability of cPLA activity” value in the assay with cPLA enzyme [1] (Triton X-100 at about 1-5 mM with about 1-3 mM thiosubstrate) is reported as “more stable”. Turning to `CCCCC/C=C\C/C=C\C/C=C\C/C=C\CCCC(=O)S[C@H](COCCCCCCCCCCCCCCCC)COP(=O)([O-])OCC[N+](C)(C)C` [thioPC, 1-hexadecyl-2-arachidonoylthio-2-deoxy-sn-glycero-3-phosphorylcholine], the “enzyme activity as a function of time: more linear phase” value in assay [2] (2 mM ThioPC, 4 mM Triton X-100, 30% glycerol, pH 7.4, 37° C., FIG. 3) lay in the range of 5 to 60 min. In assay [2] (2 mM ThioPC, 4 mM Triton X-100, 30% glycerol, pH 7.4, 37° C., FIG. 3, short burst of activity), the “enzyme activity as a function of time: burst phase” value was 5 min. As to `OCC(O)CO` [glycerol], the “effect of glycerol on enzyme activity” value in the assay on cPLA enzyme [1] (about 70% glycerol, diluent too viscous) is given as “enzyme activity is increased”; in the assay on cPLA enzyme [1] (glycerol as component of substrate diluent), “Enzyme activity increases”. Take `O=C(O)c1cc(SSc2ccc([N+](=O)[O-])c(C(=O)O)c2)ccc1[N+](=O)[O-]` [DTNB, 5,5'-dithiobis(2-nitrobenzoic acid)]: the “enzymatic activity of cPLA in the presence of thiol-sensitive reagent” value with cPLA enzyme [3] was “enzymatic activity was lost”.

B1: cPLA: 85 kDa arachidonic acid specific enzyme; purified, recombinant human (protein, UniProt P47712 1-749, looked up)
Cytosolic phospholipase A2: MSFIDPYQHIIVEHQYSHKFTVVVLRATKVTKGAFGDMLDTPDPYVELFISTTPDSRKRTRHFNNDINPVWNETFEFILDPNQENVLEITLMDANYVMDETLGTATFTVSSMKVGEKKEVPFIFNQVTEMVLEMSLEVCSCPDLRFSMALCDQEKTFRQQRKEHIRESMKKLLGPKNSEGLHSARDVPVVAILGSGGGFRAMVGFSGVMKALYESGILDCATYVAGLSGSTWYMSTLYSHPDFPEKGPEEINEELMKNVSHNPLLLLTPQKVKRYVESLWKKKSSGQPVTFTDIFGMLIGETLIHNRMNTTLSSLKEKVNTAQCPLPLFTCLHVKPDVSELMFADWVEFSPYEIGMAKYGTFMAPDLFGSKFFMGTVVKKYEENPLHFLMGVWGSAFSILFNRVLGVSGSQSRGSTMEEELENITTKHIVSNDSSDSDDESHEPKGTENEDAGSDYQSDNQASWIHRMIMALVSDSALFNTREGRAGKVHNFMLGLNLNTSYPLSPLSDFATQDSFDDDELDAAVADPDEFERIYEPLDVKSKKIHVVDSGLTFNLPYPLILRPQRGVDLIISFDFSARPSDSSPPFKELLLAEKWAKMNKLPFPKIDPYVFDREGLKECYVFKPKNPDMEKDCPTIIHFVLANINFRKYRAPGVPRETEEEKEIADFDIFDDPESPFSTFNFQYPNQAFKRLHDLMHFNTLNNIDVIKEAMVESIEYRRQNPSRCSVSLSNVEARRFFNKEFLSKPKA
In the case of B1, the “range of enzyme amount with linear activity” value in assay [2] (FIG. 2, thiosubstrate assay, listed as cytosolic phospholipase A2) was in the range of 0.05 to 1.0 µg.
